This assay has as its target T1, full length active recombinant SYK enzyme (Homo sapiens, UniProt P43405).
T1 construct: full length active recombinant SYK enzyme (Millipore, Calif.); purchased Millipore
As to the kind of experiment: Inhibition of Syk tyrosine phosphorylation activity (LANCE TR-FRET kinase assay). It counts as biochemical. The note with it: activity in the Syk assays, class symbols. In a few lines: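 IC50 was derived by non-linear regression of TR-FRET signal (Eu-W1024-PY100 donor, streptavidin-APC acceptor) read 1 h after EDTA quench. The kinase step ran 1 h at room temperature with 1 nM full-length SYK, 550 nM biotinylated DEEDYESP substrate and 100 μM ATP in Tris pH 7.5/MgCl2/DTT at 3% final DMSO.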
A general note: In TR-FRET formats the signal depends on donor and acceptor labels being close together.

Structures are written as SMILES. Where only a bound is given, the exact number is not on record here.

As a reminder, the IC50 is the point on the concentration scale where inhibition reaches its midpoint.

On to `CC[C@@H](Nc1cnc(C(N)=O)c(Nc2ccc3nc(N(C)C)oc3c2)n1)C(N)=O` [Example 318, (R)-5-(1-amino-1-oxobutan-2-ylamino)-3-(2-(dimethylamino)benzo[d]oxazol-6-ylamino)pyrazine-2-carboxamide], for which the IC50 lay within 10 to 100 nM. On to `CC[C@@H](Nc1cnc(C(N)=O)c(Nc2ccc(S(C)(=O)=O)cc2)n1)C(N)=O` [Example 159, (R)-5-(1-amino-1-oxobutan-2-ylamino)-3-(4-(methylsulfonyl)phenylamino)pyrazine-2-carboxamide], for which the IC50 was 10 to 100 nM. The result for `NC(=O)c1ncc(N[C@@H]2CCCC(F)(F)[C@@H]2N)nc1Nc1ccnc(OC2CCC2)c1` [Example 356, 5-((1R,2R)-2-amino-3,3-difluorocyclohexylamino)-3-(2-cyclobutoxypyridin-4-ylamino)pyrazine-2-carboxamide] reads 10 to 100 nM; that for `CC[C@@H](Nc1cnc(C(N)=O)c(Nc2ccc3cccnc3c2)n1)C(N)=O` [Example 376, (R)-5-(1-amino-1-oxobutan-2-ylamino)-3-(quinolin-7-ylamino)pyrazine-2-carboxamide], 1 to 10 nM. With `CC[C@@H](Nc1cnc(C(N)=O)c(Nc2cnc3ncccc3c2)n1)C(N)=O` [Example 380, (R)-3-(1,8-naphthyridin-3-ylamino)-5-(1-amino-1-oxobutan-2-ylamino)pyrazine-2-carboxamide], the IC50 was in the range of 1 to 10 nM. On to `COc1cc(Nc2nc(N[C@@H]3CCOC[C@@H]3N)cnc2C(N)=O)ccn1` [Example 357, 5-((3R,4R)-3-aminotetrahydro-2H-pyran-4-ylamino)-3-(2-methoxypyridin-4-ylamino)pyrazine-2-carboxamide], for which the IC50 lay within 1 to 10 nM. With `CC(C)C[C@@H](Nc1cnc(C(N)=O)c(Nc2ccc(C(=O)N(C)C)cc2)n1)C(N)=O` [Example 281, (R)-5-(1-amino-4-methyl-1-oxopentan-2-ylamino)-3-(4-(dimethylcarbamoyl)phenylamino)pyrazine-2-carboxamide] the figure was 10 to 100 nM; with `NC(=O)c1ncc(N[C@@H]2CCCC(F)(F)[C@@H]2N)nc1Nc1ccc2ncncc2c1` [Example 405, 5-((1R,2R)-2-amino-3,3-difluorocyclohexylamino)-3-(quinazolin-6-ylamino)pyrazine-2-carboxamide], 1 to 10 nM. In the case of `CC[C@@H](Nc1cnc(C(N)=O)c(Nc2ccnc3ncccc23)n1)C(N)=O` [Example 386, (R)-3-(1,8-naphthyridin-4-ylamino)-5-(1-amino-1-oxobutan-2-ylamino)pyrazine-2-carboxamide], the IC50 lay within 1 to 10 nM. Take `CC[C@@H](Nc1cnc(C(N)=O)c(Nc2ccc(OC)c(OC)c2)n1)C(N)=O` [Example 151, (R)-5-(1-amino-1-oxobutan-2-ylamino)-3-(3,4-dimethoxyphenylamino)pyrazine-2-carboxamide]: the IC50 fell in the range of 10 to 100 nM.

As for `CC(C)C[C@@H](Nc1cnc(C(N)=O)c(Nc2ccc(C3CC3)nc2)n1)C(N)=O` [Example 348, (R)-5-(1-amino-4-methyl-1-oxopentan-2-ylamino)-3-(6-cyclopropylpyridin-3-ylamino)pyrazine-2-carboxamide], the IC50 lay within 1 to 10 nM. The result for `Cc1ccc(Nc2nc(N[C@H](CC3CC3)C(N)=O)cnc2C(N)=O)cc1` [Example 174, (R)-5-(1-amino-3-cyclopropyl-1-oxopropan-2-ylamino)-3-(p-tolylamino)pyrazine-2-carboxamide] reads 10 to 100 nM; that for `COc1ccc(Nc2nc(N[C@@H]3CCCC[C@@H]3N)cnc2C(N)=O)cn1` [Example 296, 5-((1R,2S)-2-aminocyclohexylamino)-3-(6-methoxypyridin-3-ylamino)pyrazine-2-carboxamide], 1 to 10 nM. As for `N#CCN1CC[C@@H](Nc2cnc(C(N)=O)c(Nc3cnc4ccncc4c3)n2)C1` [Example 118, (R)-3-((1,6-naphthyridin-3-yl)amino)-5-((1-(cyanomethyl)pyrrolidin-3-yl)amino)pyrazine-2-carboxamide], the IC50 lay within 100 to 1000 nM.

`NC(=O)c1ncc(N[C@@H]2CCCC(F)(F)[C@@H]2N)nc1Nc1ccc2c(c1)COC2` [Example 452, 5-(((1R,2R)-2-amino-3,3-difluorocyclohexyl)amino)-3-((1,3-dihydroisobenzofuran-5-yl)amino)pyrazine-2-carboxamide]: the IC50 fell in the range of 1 to 10 nM. With `NC(=O)c1ncc(N[C@@H]2CCNC2)nc1Nc1cccnc1` [Example 113, (R)-3-(pyridin-3-ylamino)-5-(pyrrolidin-3-ylamino)pyrazine-2-carboxamide] the figure was 10 to 100 nM; with `NC(=O)c1ncc(N[C@H](CC2CC2)C(N)=O)nc1Nc1ccc2ncccc2c1` [Example 8, (R)-5-(1-amino-3-cyclopropyl-1-oxopropan-2-ylamino)-3-(quinolin-6-ylamino)pyrazine-2-carboxamide], 1 to 10 nM; with `NC(=O)c1ncc(N[C@@H]2CCCC[C@@H]2N)nc1Nc1ccnc(C2CC2)c1` [Example 352, 5-((1R,2S)-2-aminocyclohexylamino)-3-(2-cyclopropylpyridin-4-ylamino)pyrazine-2-carboxamide], less than 1 nM. `COc1ccc(Nc2nc(N[C@@H](C(N)=O)C(C)C)cnc2C(N)=O)cn1` [Example 326, (R)-5-(1-amino-3-methyl-1-oxobutan-2-ylamino)-3-(6-methoxypyridin-3-ylamino)pyrazine-2-carboxamide]: the IC50 is 10 to 100 nM. On to `Cc1nsc(Nc2nc(N[C@@H]3CCCC[C@@H]3N)cnc2C(N)=O)c1-c1ccccc1` [Example 120, 5-(((1R,2S)-2-aminocyclohexyl)amino)-3-((3-methyl-4-phenylisothiazol-5-yl)amino)pyrazine-2-carboxamide], for which the IC50 lay within 10 to 100 nM. On to `Cc1nsc(Nc2nc(N[C@@H]3CCCC[C@@H]3N)cnc2C(N)=O)c1C` [Example 131, 5-(((1R,2S)-2-aminocyclohexyl)amino)-3-((3,4-dimethylisothiazol-5-yl)amino)pyrazine-2-carboxamide], for which the IC50 is less than 1 nM. Take `NC(=O)c1ncc(N[C@@H]2CCCC[C@@H]2N)nc1Nc1cc(-c2ncccn2)cc(-n2cccn2)c1` [Example 45, 3-(3-(1H-pyrazol-1-yl)-5-(pyrimidin-2-yl)phenylamino)-5-((1R,2S)-2-aminocyclohexylamino)pyrazine-2-carboxamide]: the IC50 was in the range of 1 to 10 nM. In the case of `NC(=O)c1ncc(N[C@@H]2CCCC[C@@H]2N)nc1Nc1cc(CO)ns1` [Example 250, 5-((1R,2S)-2-aminocyclohexylamino)-3-(3-(hydroxymethyl)isothiazol-5-ylamino)pyrazine-2-carboxamide], the IC50 fell in the range of 1 to 10 nM. Regarding `CC(C)(C)C[C@@H](Nc1cnc(C(N)=O)c(Nc2cnc3cccnc3c2)n1)C(N)=O` [Example 246, (R)-3-(1,5-naphthyridin-3-ylamino)-5-(1-amino-4,4-dimethyl-1-oxopentan-2-ylamino)pyrazine-2-carboxamide], the IC50 is 1 to 10 nM. The result for `NC(=O)c1ncc(N[C@@H]2CCCC[C@@H]2N)nc1Nc1ccc(C(=O)N2CCC2)nc1` [Example 280, 5-((1R,2S)-2-aminocyclohexylamino)-3-(6-(azetidine-1-carbonyl)pyridin-3-ylamino)pyrazine-2-carboxamide] reads 10 to 100 nM; that for `NC(=O)c1ncc(N[C@@H]2CCCC[C@@H]2N)nc1N[C@@H]1COc2ccccc2C1` [Example 416, 5-(((1R,2S)-2-aminocyclohexyl)amino)-3-((S)-chroman-3-ylamino)pyrazine-2-carboxamide], 100 to 1000 nM. Regarding `Cc1cccc(Nc2nc(N[C@@H]3CCCC(F)(F)[C@@H]3N)cnc2C(N)=O)c1` [Example 103, 5-((1R,2R)-2-amino-3,3-difluorocyclohexylamino)-3-(m-tolylamino)pyrazine-2-carboxamide], the 50% inhibitory concentration (IC50) was in the range of 10 to 100 nM.

Regarding `NC(=O)c1ncc(N[C@@H]2CCCC[C@@H]2N)nc1Nc1cnn(-c2ccccc2)c1` [Example 262, 5-((1R,2S)-2-aminocyclohexylamino)-3-(1-phenyl-1H-pyrazol-4-ylamino)pyrazine-2-carboxamide], the IC50 is less than 1 nM. Take `CC(C)C[C@@H](Nc1cnc(C(N)=O)c(Nc2cccc(-c3ccccn3)c2)n1)C(N)=O` [Example 98, (R)-5-(1-amino-4-methyl-1-oxopentan-2-ylamino)-3-(3-(pyridin-2-yl)phenylamino)pyrazine-2-carboxamide]: the IC50 is 10 to 100 nM.

For `NC(=O)c1ncc(N[C@@H]2CCCC[C@@H]2N)nc1Nc1ccc(N2CCOCC2=O)c(F)c1` [Example 443, 5-(((1R,2S)-2-aminocyclohexyl)amino)-3-((3-fluoro-4-(3-oxomorpholino)phenyl)amino)pyrazine-2-carboxamide], the IC50 lay within 10 to 100 nM. Take `NC(=O)c1ncc(N[C@@H]2CCCC(F)(F)[C@@H]2N)nc1Nc1cccc(-n2nccn2)c1` [Example 15, 3-(3-(2H-1,2,3-triazol-2-yl)phenylamino)-5-((1R,2R)-2-amino-3,3-difluorocyclohexylamino)pyrazine-2-carboxamide]: the IC50 lay within 10 to 100 nM.

Take `NC(=O)c1ncc(N[C@@H]2CCCC[C@@H]2N)nc1Nc1cc(N2CCOCC2)cc(-n2cccn2)c1` [Example 431, 5-(((1R,2S)-2-aminocyclohexyl)amino)-3-((3-morpholino-5-(1H-pyrazol-1-yl)phenyl)amino)pyrazine-2-carboxamide]: the IC50 lay within 1 to 10 nM. On to `NC(=O)c1ncc(N[C@@H]2CCNC2)nc1Nc1cccc(-c2ncccn2)c1` [Example 114, (R)-3-((3-(pyrimidin-2-yl)phenyl)amino)-5-(pyrrolidin-3-ylamino)pyrazine-2-carboxamide], for which the IC50 was 1 to 10 nM.

Regarding `CC[C@@H](Nc1cnc(C(N)=O)c(Nc2ccnc(C)c2)n1)C(N)=O` [Example 178, (R)-5-(1-amino-1-oxobutan-2-ylamino)-3-(2-methylpyridin-4-ylamino)pyrazine-2-carboxamide], the IC50 lay within 10 to 100 nM.

(Values after patent US9359308B2, “Pyrazine kinase inhibitors” (Portola Pharmaceuticals, Inc., priority 2011, dated 2016).)
